Reference: ChEMBL document CHEMBL1148026, “Oxadiazole mannich bases: synthesis and antimycobacterial activity” (Bioorg Med Chem Lett, 2007)
≈ marks a conversion by molar mass, not a printed value.

Columns and labels:
[1] = tested on: Mycobacterium tuberculosis; test: Antimycobacterial activity against Mycobacterium tuberculosis H37Rv by agar dilution method using double dilution technique; type: functional
Vero = test: Toxicity against Vero cells at 62.5 ug/ml after 72 hrs by MTT assay; type: cell-based; conditions: chlorocebus sabaeus

SMILES	MIC [1]	Activity (Vero)
O=S(=O)(c1ccc(NC(c2ccccc2)n2nc(COc3cccc4ccccc34)oc2=S)cc1)c1ccc(NC(c2ccccc2)n2nc(COc3cccc4ccccc34)oc2=S)cc1 (centres undefined)	0.96 µM (≈ 0.903 µg/mL)	Non-toxic
O=S(=O)(c1ccc(NC(c2ccccc2)n2nc(Cc3ccccc3)oc2=S)cc1)c1ccc(NC(c2ccccc2)n2nc(Cc3ccccc3)oc2=S)cc1 (centres undefined)	1.29 µM (≈ 1.04 µg/mL)	Non-toxic
O=S(=O)(c1ccc(NC(Cc2ccco2)n2nc(COc3ccc4ccccc4c3)oc2=S)cc1)c1ccc(NC(Cc2ccco2)n2nc(COc3ccc4ccccc4c3)oc2=S)cc1 (centres undefined)	0.1 µM (≈ 0.0949 µg/mL)	Non-toxic
O=S(=O)(c1ccc(NC(Cc2ccco2)n2nc(COc3ccccc3)oc2=S)cc1)c1ccc(NC(Cc2ccco2)n2nc(COc3ccccc3)oc2=S)cc1 (centres undefined)	0.14 µM (≈ 0.119 µg/mL)	Non-toxic
O=[N+]([O-])c1ccc(-c2nn(C(Nc3ccc(S(=O)(=O)c4ccc(NC(c5ccccc5)n5nc(-c6ccc([N+](=O)[O-])cc6)oc5=S)cc4)cc3)c3ccccc3)c(=S)o2)cc1 (centres undefined)	1.94 µM (≈ 1.69 µg/mL)	Non-toxic
O=S(=O)(c1ccc(NC(c2ccccc2)n2nc(-c3ccc(Nc4ccccc4)cc3)oc2=S)cc1)c1ccc(NC(c2ccccc2)n2nc(-c3ccc(Nc4ccccc4)cc3)oc2=S)cc1 (centres undefined)	1.65 µM (≈ 1.59 µg/mL)	Non-toxic
O=[N+]([O-])c1ccc(-c2nn(C(Cc3ccco3)Nc3ccc(S(=O)(=O)c4ccc(NC(Cc5ccco5)n5nc(-c6ccc([N+](=O)[O-])cc6)oc5=S)cc4)cc3)c(=S)o2)cc1 (centres undefined)	0.42 µM (≈ 0.369 µg/mL)	Non-toxic
O=S(=O)(c1ccc(NC(Cc2ccco2)n2nc(-c3ccc(Nc4ccccc4)cc3)oc2=S)cc1)c1ccc(NC(Cc2ccco2)n2nc(-c3ccc(Nc4ccccc4)cc3)oc2=S)cc1 (centres undefined)	0.66 µM (≈ 0.641 µg/mL)	Non-toxic
O=S(=O)(c1ccc(NC(Cc2ccco2)n2nc(COc3cccc4ccccc34)oc2=S)cc1)c1ccc(NC(Cc2ccco2)n2nc(COc3cccc4ccccc34)oc2=S)cc1 (centres undefined)	0.72 µM (≈ 0.683 µg/mL)	Non-toxic
O=S(=O)(c1ccc(NC(Cc2ccco2)n2nc(Cc3ccccc3)oc2=S)cc1)c1ccc(NC(Cc2ccco2)n2nc(Cc3ccccc3)oc2=S)cc1 (centres undefined)	0.24 µM (≈ 0.196 µg/mL)	Non-toxic
O=S(=O)(c1ccc(NC(c2ccccc2)n2nc(-c3ccccc3)oc2=S)cc1)c1ccc(NC(c2ccccc2)n2nc(-c3ccccc3)oc2=S)cc1 (centres undefined)	1.72 µM (≈ 1.34 µg/mL)	Non-toxic
O=S(=O)(c1ccc(NC(c2ccccc2)n2nc(COc3ccccc3)oc2=S)cc1)c1ccc(NC(c2ccccc2)n2nc(COc3ccccc3)oc2=S)cc1 (centres undefined)	0.98 µM (≈ 0.824 µg/mL)	Non-toxic
O=S(=O)(c1ccc(NC(c2ccccc2)n2nc(COc3ccc4ccccc4c3)oc2=S)cc1)c1ccc(NC(c2ccccc2)n2nc(COc3ccc4ccccc4c3)oc2=S)cc1 (centres undefined)	0.42 µM (≈ 0.395 µg/mL)	Non-toxic
O=S(=O)(c1ccc(NC(Cc2ccco2)n2nc(-c3ccccc3)oc2=S)cc1)c1ccc(NC(Cc2ccco2)n2nc(-c3ccccc3)oc2=S)cc1 (centres undefined)	0.94 µM (≈ 0.742 µg/mL)	Non-toxic
NNC(=O)c1ccncc1 [ISONIAZID]	0.73 µM (≈ 0.1 µg/mL)	
